Assays:
RORγ = target: T1, RORγ (Homo sapiens, UniProt P51449); assay: RORγ GAL4 reporter gene assay; assay type: cell-based; conditions: inhibition of RORγ activity, GAL4-RORγ-LBD luciferase reporter in 293FT cells, overnight incubation; read-out: mean pIC50 (converted)
T1 construct: expressed in transfected cells; host or cells: 293FT cells (Invitrogen), expression vector pFN26A (Promega)
T1 sequence (P51449 269-508 limits assumed): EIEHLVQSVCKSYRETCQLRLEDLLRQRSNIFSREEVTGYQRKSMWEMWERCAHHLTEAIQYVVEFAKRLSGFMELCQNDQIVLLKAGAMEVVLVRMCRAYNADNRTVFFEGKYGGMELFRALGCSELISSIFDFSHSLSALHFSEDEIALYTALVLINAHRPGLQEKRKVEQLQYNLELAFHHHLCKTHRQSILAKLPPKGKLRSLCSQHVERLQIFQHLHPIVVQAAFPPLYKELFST
In short: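 293FT cells were transiently co-transfected with GAL4-DBD–RORγ-LBD (or GAL4-VP16 control) and a 9×UAS luc2P reporter, then plated at 60,000 cells/well. Compound was added at final 0.2% DMSO for 16-24 h at 37 °C, and inhibition was measured by firefly luciferase luminescence.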

[1] = tested on: IL-17A production in anti-CD3/anti-CD28 stimulated peripheral blood mononuclear cells (PBMCs); assay: Peripheral blood mononuclear cell (PBMC) IL-17 assay; assay type: cell-based; conditions: Homo sapiens, 120 h, inhibition of IL-17A production, PBMCs isolated from human blood, 5 days incubation, IL-17 ELISA, read-out: mean pIC50 (converted)
Experimental: PBMC IL-17 Assay Description
This assay is designed to measure the levels of IL-17A secreted from anti-CD3/anti-CD28 stimulated PBMCs with the aim of measuring RORγ mediated inhibition of IL-17A production.
The assay medium consists of 90% RPMI 1640 (Lonza), 10% heat inactivated fetal bovin serum (FBS, Lonza) and 100 U/mL penicillin/streptomycin solution.
Anti-CD3 antibody (BD Pharmingen) was diluted to 10 μg/ml in PBS (Lonza). 30 μL of 10 μg/ml anti-CD3 solution was added to the inner 60 wells, excluding any negative control wells, of a 96-well cell culture treated U-bottom plate (Greiner). Plates were incubated overnight (16-24 hours) at 37° C. and 5% CO2.
Peripheral blood mononuclear cells were separated from buffy coats (Sanquin) using Ficoll-Paque PREMIUM separation medium (GE Healthcare Life Sciences) according to manufacturer's protocol and re-suspended in assay medium at 37° C.
Test compounds were diluted, starting from a 10 mM dimethylsulfoxide (DMSO) stock solution, to serial dilutions in DMSO at 200× the final test concentration. Subsequently, these solutions were diluted in two dilution steps in assay medium to 10× the final test concentration. The DMSO concentration of the 10× test compound solution was 5%.
Anti-CD28 antibody (BD Pharmingen) was diluted to 20 μg/mL in PBS. The PBMCs were diluted to a concentration of 2.5×10^6 cells/mL in assay medium at 37° C.
For compound screening, the anti-CD3 coated plates were washed three times with PBS, the wells were subsequently aspirated using vacuum. To each screening well 80 μL of the PBMC suspension, 10 μL of the anti-CD28 solution and 10 μL of the 10× test compound solution was added, resulting in the final test concentration with 0.5% DMSO. All outer wells were filled with assay medium to prevent evaporation. Plates were incubated for 5 days at 37° C. and 5% CO2.
After incubation the plates were spun down at 1500 rpm for 4 minutes and the supernatant was collected. Subsequently, the IL-17A levels in the supernatants was determined using an IL-17 ELISA kit (human IL-17 DuoSet, R&D systems) according to manufacturer's protocol.
The half maximum inhibitory concentration ([…]) values for the test compounds were calculated from the IL-17A signal using GraphPad Prism software (GraphPad Software).

SMILES	IC50 (RORγ) [nM]	IC50 [1] [nM]
CC(C)(NC(=O)c1ccc(NC(=O)Cc2ccc(S(=O)(=O)CC3CC3)cc2)cc1)c1ccccc1 [Example 6, 4-[2-(4-cyclopropylmethanesulfonylphenyl)acetamido]-N-(2-phenylpropan-2-yl)benzamide]	≤ 100	≤ 1000
CCCN(CC1CC1)C(=O)c1ccc(NC(=O)Cc2ccc(S(=O)(=O)CC3CC3)cc2)cc1 [Example 9, 4-[2-(4-cyclopropylmethanesulfonylphenyl)acetamido]-N-(cyclopropylmethyl)-N-propylbenzamide]	≤ 100	≤ 1000

Now from value to molecule, other results behind:

IC50 (RORγ) [nM]	SMILES	IC50 [1] [nM]
≤ 10	CCN(C(=O)c1ccc(NC(=O)Cc2ccc(S(=O)(=O)NC3CC3)cc2)cc1)c1ccc(C)cc1 [Example 45, 4-{2-[4-(cyclopropylsulfamoyl)phenyl]acetamido}-N-ethyl-N-(4-methylphenyl) benzamide]	≤ 1000
≤ 100	C[C@H](NC(=O)c1ccc(NC(=O)Cc2ccc(S(=O)(=O)CC3CC3)cc2)cc1)c1ccccc1F [Example 71, 4-[2-(4-cyclopropylmethanesulfonylphenyl)acetamido]-N-[(1S)-1-(2-fluorophenyl)ethyl]benzamide]	≤ 1000
≤ 10	CCN(C(=O)c1ccc(NC(=O)Cc2ccc(S(=O)(=O)CC3CC3)cc2)cc1)c1ccon1 [Example 103, 4-[2-(4-cyclopropylmethanesulfonylphenyl)acetamido]-N-ethyl-N-(1,2-oxazol-3-yl)benzamide]	≤ 1000

— patent publication US10315996B2, “ROR gamma (RORγ) modulators” (LEAD PHARMA HOLDING B.V., priority 2015, dated 2019)
